Data: US11584727B2, “2-thioxothiazolidin-4-one derivatives active as transthyretin ligands and uses thereof” (BSIM Therapeutics, S.A., priority 2014, dated 2023)
Where two headings read alike, the source gives them in different places.

Key:
[1] = molecular target: T1, wild type transthyretin (WT-TTR) (Homo sapiens, UniProt P02766); test: WT-TTR amyloid fibril formation assay (turbidimetry, acid-induced); type: biochemical; settings: pH 4.4, 72 hours; for Fibril Formation (%): WT-TTR 3.6 μM, 1:1 TTR-compound stoichiometry, 37° C., normalized to no-compound control (100%); for IC50: WT-TTR fixed at 3.6 μM, ten compound concentrations; for inhibitory activity against TTR amyloid fibril formation compared with reference compounds (in words): TTR 3.6 μM
T1 construct: made in house; host or cells: E. coli BL21 (DE3), pET23a plasmid
Protocol: (§1) The first set of evaluations is based on a fast, stagnant fibril formation assay that is used for the early screening of compounds, be they virtual screening hits or newly synthesized analogues. In this assay, a solution of the compound under test at 1.8, 3.6 or 7.2 μM is added to a solution of TTR at 3.6 μM, so that there is enough compound to bind to either one or both of TTR's binding sites. The pH of the resulting solution is then lowered to 4.4 to promote amyloidogenesis. The process of amyloid fibril formation over time is assessed by turbidimetry measurements at three different wavelengths (405, 450 and 490 nm, or at 550, 600 and 650 nm when the compound absorbs light at the previous wavelengths), using a spectrophotometer endowed with a BioTek microplate reader. The extent of fibril formation of each mixture is determined by normalizing a sample with the protein (TTR), in absence of compounds, which, at the end of 72 hours, represents 100% of amyloid fibril formation. In each experiment, each compound concentration is tested in triplicate. For each compound concentration and incubation time, the arithmetic mean of the triplicate experiments is calculated, as well as the arithmetic mean of the three measured wavelengths. High activity can be defined as a percentage of fibril formation below 10% at compound concentration 7.2 μM (TTR:compound stoichiometry 1:2) and below 40% at 3.6 μM (TTR:compound stoichiometry 1:1).
The in vitro activity of the compounds was assessed through a biochemical assay based on turbidimetry measurements, in which fibril formation is induced by acidification of the solution to pH 4.4 after incubation with the hit compound to be tested. The amount of amyloid fibrils formed is then monitored throughout 72 hours. Further details on this assay are provided in the “Evaluation of amyloid inhibition in vitro” subsection in “Materials and Methods”.
Experimental evaluation of the in vitro activity of virtual screening hits against amyloid fibril formation by TTR was carried out using a biochemical assay based on turbidimetry measurements. In this assay, fibril formation is induced by acidification of the solution to pH 4.4 after incubation with the hit compound to be tested. The amount of amyloid fibrils formed is monitored over 72 hours. Further details on the assay are provided in the “Evaluation of amyloid inhibition in vitro” subsection below.
(§2) Purchased virtual screening hits and all synthesized (optimization) derivatives were dissolved in DMSO to a final concentration of 10.8 mM to provide a primary stock solution. Several secondary stock solutions were prepared in DMSO by dilution of the primary stock solution and the concentrations were chosen depending on the effectiveness of the compound in inhibiting the TTR amyloid fibril formation.
(§3) The fibril formation assay was adapted to run in a high-throughput screening mode. For this purpose, 96-well microplates were used with a final assay volume of 100 μL.
(§4) One microLitre (μL) of different compound secondary stock solutions was added to 50 μL of a 7.2 μM wild type TTR (WT-TTR) or Val122Ile-TTR (V122I-TTR) solutions in 10 miliMolar (mM) sodium phosphate buffer, 100 mM KCl and 1 mM EDTA, pH 7.2, previously dialyzed against the same buffer solution. After 30 minutes of incubation at room temperature, the pH of the mixture was lowered to 4.4 with 49 μL of 200 mM acetate buffer, 100 mM KCl and 1 mM EDTA, pH 4.3.
(§5) The mixtures were incubated at 37° C. during 72 hours. Turbidity at 405 nm, 450 nm and 490 nm (or at 550, 600 and 650 nm when the test compound absorbs light at the previous wavelengths) was measured over time (0, 17, 24, 41, 48, 65 and 72 hours) using a BioTek Microplate Spectrophotometer to evaluate the extent of fibril formation. Immediately before the turbidity measurements, the mixtures were gently shacked during 1 minute to homogenize well and not damage the formed amyloid aggregates and fibrils.

[2] = molecular target: Val122Ile transthyretin (V122I-TTR) (Homo sapiens, UniProt P02766, V142I); test: V122I-TTR amyloid fibril formation assay (turbidimetry, acid-induced); type: biochemical; settings: pH 4.4, 72 hours; for Fibril Formation (%): V122I-TTR 3.6 μM, 37° C.; for IC50: V122I-TTR fixed at 3.6 μM, ten compound concentrations
Protocol: as §1, §2, §3, §4
as §5, with “fibrils. The final turbidity was calculated as an average of the three wavelengths measured.” for “fibrils.”
In addition, control samples containing TTR with no inhibitor and 1% DMSO, as well as inhibitor in absence of TTR were tested and analyzed.
The extent of amyloid fibril formation data was normalized to TTR in the absence of inhibitor, assigned to be 100% fibril formation (or 0% amyloid inhibition) at the end of the experiment.
The extent of amyloid fibril formation throughout 72 hours was determined as described in the “Evaluation of amyloid inhibition in vitro” subsection above.
IC50 values were calculated from the inhibition curves obtained by fitting the values by a nonlinear curve method using the OriginPro7 (OriginLab Corporation, USA).

[3] = read-out: IC50 (μM), concentration inhibiting WT-TTR amyloid fibril formation by 50%

Compound	Fibril Formation (%) [1] [%]	Fibril Formation (%) [2] [%]	IC50 [1, 3] [µM]	IC50 [2] [µM]	IC50 [1] [µM]	melting point [°C]	inhibitory activity against TTR amyloid fibril formation compared with reference compounds (in words) [1]	IC50 ([2]; read-out: IC50 (μM), concentration inhibiting V122I-TTR amyloid fibril formation by 50%) [µM]
NC(Cc1cc(I)c(Oc2cc(I)c(O)c(I)c2)c(I)c1)C(=O)O (stereo in doubt) [Thyroxine, (2S)-2-amino-3-[4-(4-hydroxy-3,5-diiodophenoxy)-3,5-diiodophenyl]propanoic acid, reference compound]	28	42						
Oc1c(Cl)cc(-c2cc(Cl)c(O)c(Cl)c2)cc1Cl [2OH- PCB80, 2,6-dichloro-4-(3,5-dichloro-4-oxidophenyl)benzen-1-olate, reference compound]	20	24	1.59 ± 0.27	1.45				
COc1cc(/C=C2/SC(=S)N(CC(=O)O)C2=O)cc(Cl)c1O [AT50-A00 (E), (E)-3-hydroxycarbonylmethyl-5-(3′-chloro-4′-hydroxy-5′-methoxyphenylmethylidene)-2-thioxothiazolidin-4-one]	26	45		3.06	1.73 ± 0.06			
O=C(O)CN1C(=O)/C(=C/c2cc(O)c(O)c(Cl)c2)SC1=S [AT50-A01, (Z)-5-(3′-chloro-4′,5′-dihydroxyphenylmethylidene)-3-hydroxycarbonylmethyl-2-thioxothiazolidin-4-one]	12	29		2.34	1.45 ± 0.04	241 to 242		
O=C(O)CN1C(=O)/C(=C/c2ccc(O)cc2)SC1=S [AT50-A11, (Z)-3-hydroxycarbonylmethyl-5-(4′-hydroxyphenylmethylidene)-2-thioxothiazolidin-4-one]	35					213 to 214		
Cc1cc(/C=C2\SC(=S)N(CC(=O)O)C2=O)cc(O)c1O [AT50-A35, (Z)-5-(3′,4′-dihydroxy-5′-methylphenylmethylidene)-3-hydroxycarbonylmethyl-2-thioxothiazolidin-4-one]	21				2.23	238 to 239		
COc1cc(/C=C2\SC(=S)N(CC(=O)O)C2=O)cc(C)c1O [AT50-A47, (Z)-3-hydroxycarbonylmethyl-5-(4′-hydroxy-3′-methoxy-5′-methylphenylmethylidene)-2-thioxothiazolidin-4-one]	21				2.05	238 to 239		
O=C(O)CN1C(=O)/C(=C/c2cc(Br)c(O)c(Br)c2)SC1=S [AT50-A50, (Z)-5-(3′,5′-dibromo-4′-hydroxyphenylmethylidene)-3-hydroxycarbonylmethyl-2-thioxothiazolidin-4-one]	8				0.9			
COc1cccc(/C=C2\SC(=S)N(C(C)C(=O)O)C2=O)c1 (centres unmarked) [AT50-B00, (Z)-3-(1′-hydroxycarbonylethyl)-5-(3′-methoxyphenylmethylidene)-2-thioxothiazolidin-4-one]	35				2.38 ± 0.17		superior to that of reference compounds Tafamidis	
COc1cc(/C=C2\SC(=S)N([C@H](CC(C)C)C(=O)O)C2=O)cc(OC)c1O [AT50-B01, (Z)-(1′S)-5-(4′-hydroxy-3′,5′-dimethoxyphenylmethylidene)-3-(1′-hydroxycarbonylisopentyl)-2-thioxothiazolidin-4-one]	10	20		1.48	0.95 ± 0.45			
O=C(O)CC[C@@H](C(=O)O)N1C(=O)/C(=C/c2c(Cl)cccc2Cl)SC1=S [AT50-C00, (Z)-(1′S)-5-(2′,6′-dichlorophenylmethylidene)-3-(1′,3′-di(hydroxycarbonyl)propyl)-2-thioxothiazolidin-4-one]	26				2.05 ± 0.04		superior to that of reference compounds Tafamidis	
O=C(O)CC[C@@H](C(=O)O)N1C(=O)/C(=C/c2ccc(O)c(Br)c2)SC1=S [AT50-C01, (Z)-(1′S)-5-(3′-bromo-4′-hydroxyphenylmethylidene)-3-(1′,3′-di(hydroxycarbonyl)propyl)-2-thioxothiazolidin-4-one]	13	39		2.66	1.38 ± 0.3			
Cc1cc(/C=C2\SC(=S)N([C@@H](CCC(=O)O)C(=O)O)C2=O)cc(Cl)c1O [AT50-C02, (Z)-(1′S)-5-(3′-chloro-4′-hydroxy-5′-methylphenylmethylidene)-3-(1′,3′-di(hydroxycarbonyl)propyl)-2-thioxothiazolidin-4-one]	18				1.79 ± 0.13			
COc1cc(/C=C2\SC(=S)N(CCC(=O)O)C2=O)cc(C)c1O [AT50-C18, (Z)-5-(4′-hydroxy-3′-methoxy-5′-methylphenylmethylidene)-3-(2′-hydroxycarbonylethyl)-2-thioxothiazolidin-4-one]	30					194 to 196		
O=C(O)CCN1C(=O)/C(=C/c2cc(O)c(O)c(Cl)c2)SC1=S [AT50-C19, (Z)-5-(3′-chloro-4′,5′-dihydroxyphenylmethylidene)-3-(2′-hydroxycarbonylethyl)-2-thioxothiazolidin-4-one]	33					243 to 245		
Cc1cc(/C=C2\SC(=S)N(CCC(=O)O)C2=O)cc(O)c1O [AT50-C20, (Z)-5-(3′,4′-dihydroxy-5′-methylphenylmethylidene)-3-(2′-hydroxycarbonylethyl)-2-thioxothiazolidin-4-one]	39					221 to 222		
(Z)-5-(3′,5′-dichloro-4′-hydroxyphenylmethylidene)-3-hydroxycarbonylmethyl-2,4-dioxothiazolidine [AT50-A49]	4	12	0.89 ± 0.15					1.32
(Z)-5-(3′-bromo-4′-hydroxy-5′-iodophenylmethylidene)-3-hydroxycarbonylmethyl-2,4-dioxothiazolidine [AT50-A51]	5		1.07 ± 0.42					
